Data published in patent US20250120399A1, “METHODS AND COMPOSITIONS FOR ALTERING METABOLITES IN VITIS SPP. AND PREVENTING PESTS AND PATHOGENS” (Impello Biosciences, Inc., priority 2022, published 2025).
“And” between values parts separate entries of the source, which are not always exact repeats. Equal entries are not always repeated.

How the values were obtained:
Botrytis cinerea = Botrytis cinerea disease score (0-5) on inoculated hemp plants (Example 7); format: in vivo; settings: at harvest, 8 replicates
Method: A Botrytis cinerea isolate was cultured onto potato-dextrose agar (PDA) and re-isolated by taking a mycelial plug from the edge of actively growing cultures every 2-3 weeks to maintain active growing culture. It was maintained at 20° C. under continuous light (˜[…] m^−2 s^−1). An inoculum was prepared by flooding a full grown B. cinerea PDA plate with DI water and 0.1% Tween-20 to create a suspension of fungal spores. Spore count was quantified.
In the first inoculation, a suspension of 1.2×10^4 spores of B. cinerea/mL was created, and 1.5 mL was applied to the top cola/underdeveloped inflorescence of each hemp plant in the first week of flowering. In the second inoculation, a suspension of 1.5×10^5 spores of B. cinerea/mL was created, and sucrose was added to 1% concentration, and the plants were sprayed until drip using a backpack sprayer.
Inoculated plants were placed in a controlled growth environment with a constant temperature of 20-25° C. and 50-70% relative humidity. (See Zhang et al., “Infection Assays of Tomato and Apple Fruit by the Fungal Pathogen Botrytis cinerea,” bio-protocol 2014; 4 (23): 1-4. See also, Bulger et al. Phytopathology 1987; 77 (8): 1225-1230 and Garfinkel, Plant Disease 2020; 104 (7): 2026.)
Treatments comprising 1 mM or 5 mM jasmonate (MDJ) were applied alone or alongside a biological (Continuum™). […]

[1] = system: Grapevine (Malbec variety); test: Leaf sap Brix by refractometer, Malbec field trial (Example 1); format: in vivo, Vitis vinifera; set-up: % BRIX, Plant #1 / % BRIX, Plant #2 / % BRIX, Plant #3: reference not given here; settings: for Brix, individual leaf: leaf no. 1-25, one line per leaf; for AVG Brix, Plant #1 / AVG Brix, Plant #2 / AVG Brix, Plant #3: average of 25 leaves; for Brix, individual leaves, Plant #1 / Brix, individual leaves, Plant #2 / Brix, individual leaves, Plant #3: leaf sap; for Brix, individual leaves, Plant #1: MDJ treated Plant #1, leaf no. 1-25; for Brix, individual leaves, Plant #2: MDJ treated Plant #2, leaf no. 1-25; for Brix, individual leaves, Plant #3: MDJ treated Plant #3, leaf no. 1-25
Method: An eliciting composition and methods of use to alter metabolite production were tested on 6 acres of a Malbec variety planted in 1999 in Napa Valley, California. Plants were spaced 5′×10′ (900 vines per acre) and grouped into randomized blocks of 900 vines per group, with six replicates covering three acres for the treatment group, and six replicates covering three acres for the control group. The treatment group received two applications of 32 oz of MDJ applied at a rate of 100 gallons per acre (2.5 mM), once prior to veraison on Aug. 9, 2021 and again when 5-10% of berries were starting to blush (veraison) using a ground spray rig (backpack sprayer). From within each replicate, three plants were selected at random, and 25 leaves from each plant were randomly selected for analysis. The internal sap of the leaves was tested using a refractometer on the days shown below in Table 4 and FIG. 1. Data from each replicate was averaged (25 leaves from each plant, 3 plants).

[2] = Malbec, 2.5 mM MDJ, average of all replicate groups sampled
[3] = Replicate 1 sampled on Aug. 15, 2021, MDJ treated Plant #1
[4] = Replicate 1 sampled on Aug. 15, 2021, MDJ treated Plant #2
[5] = Replicate 1 sampled on Aug. 15, 2021, MDJ treated Plant #3
[6] = Replicate 2 sampled on Sep. 22, 2021, MDJ treated Plant #1
[7] = Replicate 2 sampled on Sep. 22, 2021, MDJ treated Plant #2
[8] = Replicate 2 sampled on Sep. 22, 2021, MDJ treated Plant #3
[9] = Replicate 3 sampled on Sep. 30, 2021, MDJ treated Plant #1
[10] = Replicate 3 sampled on Sep. 30, 2021, MDJ treated Plant #2
[11] = Replicate 3 sampled on Sep. 30, 2021, MDJ treated Plant #3
[12] = Replicate 4, Oct. 5, 2021, MDJ treated Plant #1
[13] = Replicate 4, Oct. 5, 2021, MDJ treated Plant #2
[14] = Replicate 4, Oct. 5, 2021, MDJ treated Plant #3
[15] = Replicate 5, Oct. 10, 2021, MDJ treated Plant #1
[16] = Replicate 5, Oct. 10, 2021, MDJ treated Plant #2
[17] = Replicate 5, Oct. 10, 2021, MDJ treated Plant #3
[18] = Replicate 6, Oct. 30, 2021, MDJ treated Plant #1
[19] = Replicate 6, Oct. 30, 2021, MDJ treated Plant #2
[20] = Replicate 6, Oct. 30, 2021, MDJ treated Plant #3
[21] = Replicate 4 sampled on Oct. 5, 2021
[22] = Replicate 5 sampled on Oct. 10, 2021
[23] = Replicate 6 sampled on Oct. 30, 2021

CCCCCC1C(=O)CCC1CC(=O)OC (stereo not shown) [MDJ, methyl dihydrojasmonate]
Average Disease Score (0-5) (Botrytis cinerea; condition B, 1 mM MDJ foliar spray): 2.625 | Average Disease Score (0-5) (Botrytis cinerea; condition C, 5 mM MDJ foliar spray): 2.250 | Brix, individual leaf ([1]; Malbec, 2.5 mM MDJ, Replicate 1 sampled on Aug. 15, 2021, MDJ treated Plant #1): 21.0 and 20.0 (2×) and 19.0 (2×) and 19.8 (3×) and 19.5 (3×) and 18.7 (2×) and 19.4 (2×) and 20.5 (2×) and 18.9 (5×) and 18.4 and 19.9 (2×) | Brix, individual leaf ([1]; Malbec, 2.5 mM MDJ, Replicate 1 sampled on Aug. 15, 2021, MDJ treated Plant #2): 18.8 and 22.1 and 19.6 and 18.7 and 18.9 (2×) and 19.7 (2×) and 19.0 (2×) and 21.0 (2×) and 20.1 and 19.2 (2×) and 21.1 and 21.8 and 19.1 (2×) and 18.3 and 18.0 and 18.6 and 22.8 and 19.5 and 19.3 | Brix, individual leaf ([1]; Malbec, 2.5 mM MDJ, Replicate 1 sampled on Aug. 15, 2021, MDJ treated Plant #3): 19.1 and 19.7 (2×) and 19.0 (2×) and 21.0 and 21.8 (2×) and 19.2 (2×) and 20.0 and 19.10 and 19.00 (2×) and 19.30 (2×) and 19.60 and 19.40 (2×) and 18.80 and 18.90 (2×) and 19.6 and 18.3 and 18.9 | Brix, individual leaf ([1]; Malbec, 2.5 mM MDJ, Replicate 2 sampled on Sep. 22, 2021, MDJ treated Plant #1): 23.9 and 26.3 and 23.4 and 26.8 and 24.3 and 23.1 and 25.0 and 22.9 | Brix, individual leaf ([1]; Malbec, 2.5 mM MDJ, Replicate 2 sampled on Sep. 22, 2021, MDJ treated Plant #2): 26.5 and 25.5 and 24.8 and 24.9 and 26.7 and 23.8 and 24.0 and 25.0 | Brix, individual leaf ([1]; Malbec, 2.5 mM MDJ, Replicate 2 sampled on Sep. 22, 2021, MDJ treated Plant #3): 25.00 (2×) and 19.90 (2×) and 22.40 and 23.80 and 19.30 and 24.60 and 24.50 | MDJ TREATED averages, BRIX METRIC Juice-SAP [1, 2]: 26.1 | Percent increase of Brix, MDJ treated vs control [1, 2]: 44.5% | Percent increase of Brix, MDJ treated vs control ([1]; Malbec, 2.5 mM MDJ, replicate group 2, 22-Sep): 59.4% | Percent increase of Brix, MDJ treated vs control ([1]; Malbec, 2.5 mM MDJ, replicate group 3, 30-Sep): 93.3% | Percent increase of Brix, MDJ treated vs control ([1]; Malbec, 2.5 mM MDJ, replicate group 4, 5-Oct): 46.3% | Percent increase of Brix, MDJ treated vs control ([1]; Malbec, 2.5 mM MDJ, replicate group 5, 10-Oct): 25% | Percent increase of Brix, MDJ treated vs control ([1]; Malbec, 2.5 mM MDJ, replicate group 6, 30-Oct): 62.5% | MDJ TREATED averages, BRIX METRIC Juice-SAP ([1]; Malbec, two applications of 32 oz MDJ at 100 gal/acre (2.5 mM), replicate group 1, 15-Aug): 19.6 | MDJ TREATED averages, BRIX METRIC Juice-SAP ([1]; Malbec, two applications of 32 oz MDJ at 100 gal/acre (2.5 mM), replicate group 2, 22-Sep): 24.4 | MDJ TREATED averages, BRIX METRIC Juice-SAP ([1]; Malbec, two applications of 32 oz MDJ at 100 gal/acre (2.5 mM), replicate group 3, 30-Sep): 29.0 | MDJ TREATED averages, BRIX METRIC Juice-SAP ([1]; Malbec, two applications of 32 oz MDJ at 100 gal/acre (2.5 mM), replicate group 4, 5-Oct): 30.0 | MDJ TREATED averages, BRIX METRIC Juice-SAP ([1]; Malbec, two applications of 32 oz MDJ at 100 gal/acre (2.5 mM), replicate group 5, 10-Oct): 27.5 | MDJ TREATED averages, BRIX METRIC Juice-SAP ([1]; Malbec, two applications of 32 oz MDJ at 100 gal/acre (2.5 mM), replicate group 6, 30-Oct): 26.0 | Plant Brix vs control ([1]; Malbec, two applications of MDJ (2.5 mM)): increase in plant Brix | % BRIX [1, 3]: 77.9% | AVG Brix of 25 leaves [1, 3]: 19.5 | % BRIX [1, 4]: 78.8% | AVG Brix of 25 leaves [1, 4]: 19.7 | % BRIX [1, 5]: 77.9% | AVG Brix of 25 leaves [1, 5]: 19.5 | % BRIX [1, 6]: 99.5% | AVG Brix of 25 leaves [1, 6]: 24.9 | % BRIX [1, 7]: 101.0% | AVG Brix of 25 leaves [1, 7]: 25.3 | % BRIX [1, 8]: 91.8% | AVG Brix of 25 leaves [1, 8]: 23.0 | % BRIX [1, 9]: 111.9% | AVG Brix of 25 leaves [1, 9]: 28.0 | % BRIX [1, 10]: 117.9% | AVG Brix of 25 leaves [1, 10]: 29.5 | % BRIX [1, 11]: 117.9% | AVG Brix of 25 leaves [1, 11]: 29.5 | % BRIX, Plant #1 [1, 12]: 119.5% | % BRIX, Plant #2 [1, 13]: 119.2% | % BRIX, Plant #3 [1, 14]: 120.8% | % BRIX, Plant #1 [1, 15]: 111.4% | % BRIX, Plant #2 [1, 16]: 111.4% | % BRIX, Plant #3 [1, 17]: 107.3% | % BRIX, Plant #1 [1, 18]: 99.2% | % BRIX, Plant #2 [1, 19]: 110.1% | % BRIX, Plant #3 [1, 20]: 103.2% | AVG Brix, Plant #1 [1, 12]: 29.9 | AVG Brix, Plant #2 [1, 13]: 29.8 | AVG Brix, Plant #3 [1, 14]: 30.2 | AVG Brix, Plant #1 [1, 15]: 27.9 | AVG Brix, Plant #2 [1, 16]: 27.8 | AVG Brix, Plant #3 [1, 17]: 26.8 | AVG Brix, Plant #1 [1, 18]: 24.8 | AVG Brix, Plant #2 [1, 19]: 27.5 | AVG Brix, Plant #3 [1, 20]: 25.8 | Brix, individual leaves, Plant #1 ([1]; Replicate 4 sampled on Oct. 5, 2021, two applications of 32 oz MDJ at 100 gal/acre (2.5 mM)): 30.6 and 29.8 (2×) and 29.0 and 29.5 (6×) and 32.3 and 28.7 and 28.9 (3×) and 29.7 (2×) and 28.8 and 30.0 and 30.4 and 33.3 and 29.9 (2×) and 31.8 and 29.6 | Brix, individual leaves, Plant #2 [1, 21]: 29.3 (2×) and 28.0 and 26.9 and 28.5 and 29.9 (2×) and 29.8 (3×) and 30.1 and 28.9 (2×) and 29.4 and 28.3 and 33.3 and 33.0 and 32.9 and 32.5 and 28.8 and 30.4 and 29.5 (2×) and 29.6 and 28.7 | Brix, individual leaves, Plant #3 [1, 21]: 31.9 and 29.8 (2×) and 29.2 and 29.3 and 29.9 (4×) and 28.5 and 30.4 and 29.5 (2×) and 31.0 and 32.5 and 32.9 and 29.0 and 28.7 and 28.8 and 30.1 and 30.3 and 29.6 and 33.0 and 32.8 and 28.9 | Brix, individual leaves, Plant #1 [1, 22]: 28.7 and 26.1 and 26.2 and 27.2 and 27.7 and 27.6 (2×) and 26.4 (2×) and 28.2 and 28.8 (3×) and 25.8 and 28.5 and 26.0 and 26.9 and 29.5 (2×) and 27.4 and 32.0 and 23.8 and 29.9 and 30.5 and 28.0 | Brix, individual leaves, Plant #2 [1, 22]: 28.5 (2×) and 27.5 (2×) and 29.1 and 26.8 and 26.4 and 27.8 and 29.9 and 28.7 (2×) and 29.4 and 28.3 and 29.5 and 28.6 and 25.0 and 27.6 and 25.9 and 29.8 and 28.4 and 28.0 and 26.0 and 26.1 and 27.2 and 27.0 | Brix, individual leaves, Plant #3 [1, 22]: 26.8 (3×) and 24.5 and 26.3 (2×) and 25.5 (3×) and 25.3 and 28.5 (4×) and 26.7 and 25.8 and 27.0 and 28.7 and 26.9 and 29.8 and 27.5 (2×) and 26.0 and 26.5 and 24.8 | Brix, individual leaves, Plant #1 [1, 23]: 23.4 and 23.8 (2×) and 24.0 (4×) and 26.0 (2×) and 25.0 (3×) and 25.1 and 26.6 (2×) and 25.6 and 24.5 (2×) and 24.8 (2×) and 24.7 and 23.9 and 22.8 and 25.5 and 26.5 | Brix, individual leaves, Plant #2 [1, 23]: 28.7 (2×) and 24.5 and 24.1 and 26.0 (2×) and 28.0 (3×) and 27.1 and 26.4 and 29.1 and 25.5 and 28.5 (2×) and 26.9 and 29.8 (2×) and 29.9 and 27.3 (2×) and 24.9 and 26.6 and 29.5 and 29.0 | Brix, individual leaves, Plant #3 [1, 23]: 25.0 (2×) and 23.1 and 22.9 (2×) and 28.1 and 25.8 and 26.9 and 25.5 and 25.6 (2×) and 26.2 and 23.9 (2×) and 28.8 and 26.3 and 27.2 and 27.3 and 26.1 and 24.6 and 25.7 and 29.9 and 28.4 and 25.4 and 24.9
